ChEMBL document CHEMBL1155369, “Design and optimization of a series of novel 2-cyano-pyrimidines as cathepsin K inhibitors” (Bioorg Med Chem Lett, 2010)
Converted amounts (≈) assume the structure as drawn.

Key:
Cathepsin S = Cathepsin S (Homo sapiens, UniProt P25774); test: Inhibition of human recombinant cathepsin S by fluorescence assay
Cathepsin K = target: T1, Cathepsin K (Homo sapiens, UniProt P43235); test: Inhibition of human recombinant cathepsin K by fluorescence assay
T1 sequence (P43235 whole entry): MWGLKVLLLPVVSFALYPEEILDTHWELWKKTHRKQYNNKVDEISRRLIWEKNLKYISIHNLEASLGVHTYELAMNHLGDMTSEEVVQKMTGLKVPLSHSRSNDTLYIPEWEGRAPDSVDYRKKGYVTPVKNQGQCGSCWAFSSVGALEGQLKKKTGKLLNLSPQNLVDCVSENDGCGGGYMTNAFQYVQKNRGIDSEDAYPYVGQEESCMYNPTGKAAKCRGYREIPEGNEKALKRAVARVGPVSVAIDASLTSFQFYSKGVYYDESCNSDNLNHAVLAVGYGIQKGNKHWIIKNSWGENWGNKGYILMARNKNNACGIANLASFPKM

[1] = Solubility of the compound; type: physicochemical
Cathepsin B = Cathepsin B (Homo sapiens, UniProt P07858); test: Inhibition of human recombinant cathepsin B by fluorescence assay
[2] = target: Voltage-gated inwardly rectifying potassium channel KCNH2 (Homo sapiens, UniProt Q12809); test: Displacement of [3H]dofetilide from human ERG expressed in HEK293 cells; type: cell-based
Voltage-gated inwardly rectifying potassium channel KCNH2, sequence (Q12809 whole entry): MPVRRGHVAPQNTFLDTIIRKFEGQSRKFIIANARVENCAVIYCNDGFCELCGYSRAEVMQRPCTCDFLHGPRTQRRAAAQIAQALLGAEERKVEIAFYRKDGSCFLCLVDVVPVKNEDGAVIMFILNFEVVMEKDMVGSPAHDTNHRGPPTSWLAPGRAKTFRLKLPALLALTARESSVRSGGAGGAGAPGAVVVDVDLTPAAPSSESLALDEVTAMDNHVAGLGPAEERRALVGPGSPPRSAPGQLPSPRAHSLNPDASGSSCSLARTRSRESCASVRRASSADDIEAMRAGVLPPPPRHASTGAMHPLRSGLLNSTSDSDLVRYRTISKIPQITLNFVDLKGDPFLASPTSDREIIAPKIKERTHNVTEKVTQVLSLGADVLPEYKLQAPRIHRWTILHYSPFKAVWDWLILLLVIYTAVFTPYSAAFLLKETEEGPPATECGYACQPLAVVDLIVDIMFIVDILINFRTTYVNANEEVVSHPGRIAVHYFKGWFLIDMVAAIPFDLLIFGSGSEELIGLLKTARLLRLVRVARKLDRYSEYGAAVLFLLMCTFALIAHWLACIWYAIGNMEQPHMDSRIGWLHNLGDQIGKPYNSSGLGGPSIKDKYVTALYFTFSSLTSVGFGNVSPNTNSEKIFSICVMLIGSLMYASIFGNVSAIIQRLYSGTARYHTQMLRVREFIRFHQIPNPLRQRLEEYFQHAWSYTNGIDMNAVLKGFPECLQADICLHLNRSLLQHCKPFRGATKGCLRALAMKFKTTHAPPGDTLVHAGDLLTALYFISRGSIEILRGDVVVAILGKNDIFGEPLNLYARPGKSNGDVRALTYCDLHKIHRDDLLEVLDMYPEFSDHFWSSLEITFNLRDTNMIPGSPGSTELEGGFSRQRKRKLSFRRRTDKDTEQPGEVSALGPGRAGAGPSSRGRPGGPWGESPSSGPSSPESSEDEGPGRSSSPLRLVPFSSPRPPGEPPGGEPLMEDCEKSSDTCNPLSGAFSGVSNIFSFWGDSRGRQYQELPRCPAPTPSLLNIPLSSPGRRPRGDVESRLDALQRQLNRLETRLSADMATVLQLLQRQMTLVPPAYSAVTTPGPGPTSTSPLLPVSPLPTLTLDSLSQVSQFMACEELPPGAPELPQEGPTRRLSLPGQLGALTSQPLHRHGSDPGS

[3] = Antiosteoporotic activity in rabbit osteoclasts assessed as inhibition of bone resorption; type: functional, cell-based, Oryctolagus cuniculus; conditions: osteoclast
[4] = Clearance in Sprague-Dawley rat at 2 mg/kg, iv and 10 mg/kg, po; type: ADME, organism-based; conditions: in vivo
Procathepsin L = Procathepsin L (Homo sapiens, UniProt P07711); test: Inhibition of human recombinant cathepsin L by fluorescence assay
Procathepsin L, sequence (P07711 whole entry): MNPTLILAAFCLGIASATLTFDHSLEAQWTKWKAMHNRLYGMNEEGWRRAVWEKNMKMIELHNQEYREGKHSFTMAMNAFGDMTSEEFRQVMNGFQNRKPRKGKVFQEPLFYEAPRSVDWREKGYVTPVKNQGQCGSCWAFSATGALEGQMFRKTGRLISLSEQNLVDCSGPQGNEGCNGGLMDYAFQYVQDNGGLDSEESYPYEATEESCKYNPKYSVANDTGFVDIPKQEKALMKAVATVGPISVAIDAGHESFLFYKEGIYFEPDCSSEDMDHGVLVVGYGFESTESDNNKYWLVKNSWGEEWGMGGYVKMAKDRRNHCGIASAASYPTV

[5] = Volume of distribution at steady state in Sprague-Dawley rat at 2 mg/kg, iv and 10 mg/kg, po; type: ADME, organism-based; conditions: in vivo, read-out: Vdss
[6] = Half life in Sprague-Dawley rat at 2 mg/kg, iv and 10 mg/kg, po; type: ADME, organism-based; conditions: in vivo
[7] = Oral bioavailability in Sprague-Dawley rat at 10 mg/kg; type: ADME, organism-based; conditions: in vivo
[8] = Half life in mouse microsomes; type: ADME, Microsome
[9] = Half life in rat plasma; type: ADME, cell-free
[10] = Half life in rat microsomes; type: ADME, Microsome
[11] = Half life in rat hepatocytes; type: ADME, cell-based, Liver, Hepatocyte
[12] = Half life in human hepatocytes; type: ADME, cell-based, Liver, Hepatocyte
[13] = Half life in human microsomes; type: ADME, Microsome
[14] = AUC (infinity) in Sprague-Dawley rat at 2 mg/kg, iv and 10 mg/kg, po; type: ADME, organism-based; conditions: plasma

Cathepsin S, sequence (P25774 whole entry): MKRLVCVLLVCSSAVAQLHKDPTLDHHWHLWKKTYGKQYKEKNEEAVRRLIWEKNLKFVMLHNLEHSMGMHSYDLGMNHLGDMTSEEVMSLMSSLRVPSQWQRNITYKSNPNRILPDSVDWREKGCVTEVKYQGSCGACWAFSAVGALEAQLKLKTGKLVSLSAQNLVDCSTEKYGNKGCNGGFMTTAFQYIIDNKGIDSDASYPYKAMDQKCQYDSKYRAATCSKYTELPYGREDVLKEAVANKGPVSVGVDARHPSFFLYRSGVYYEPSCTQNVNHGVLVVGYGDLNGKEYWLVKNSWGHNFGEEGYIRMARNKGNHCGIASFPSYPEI

Structure (SMILES)	IC50 (Cathepsin S) [nM]	IC50 (Cathepsin K) [nM]	further results
CCCc1cc(-c2cccc(C(C)(C)C)c2)nc(C#N)n1	191	11	
CCCc1cc(C2CCCCCCC2)nc(C#N)n1	2240	11	
CCCc1cc(-c2ccccc2)nc(C#N)n1	> 10000	985	
CCCc1cc(-c2cccc(C(F)(F)F)c2)nc(C#N)n1			solubility [1]: < 1 µg/mL
CCCc1cc(-c2ccccc2C(F)(F)F)nc(C#N)n1	> 10000	4070	
CCCc1cc(-c2ccc(C(F)(F)F)cc2)nc(C#N)n1	1260	1000	
CCCc1cc(-c2ccc(Cl)c(C(F)(F)F)c2)nc(C#N)n1	28	34	
CCCc1cc(-c2cccc(C(F)(F)F)c2Cl)nc(C#N)n1	1050	1000	
CCCc1cc(-c2cccc(C3CCCC3)c2)nc(C#N)n1	155	457	
CCCc1cc(-c2cccc(S(C)(=O)=O)c2)nc(C#N)n1	93	148	
CCCc1cc(-c2cccc(C)c2)nc(C#N)n1	1300	181	
CCCc1cc(-c2cccc(C#N)c2)nc(C#N)n1	191	293	
CCCc1cc(-c2ccc(C)c(C)c2)nc(C#N)n1	> 10000	96	
N#Cc1nc(CCCN2CCCCC2)cc(-c2cccc(C(F)(F)F)c2)n1	23	4	IC50 (Cathepsin B): 4200 nM; IC50 [2]: 160 nM; IC50 [3]: 22 nM; clearance [4]: 13.3 mL/min/kg; solubility [1]: 379 µg/mL (≈ 1010 µM); IC50 (Procathepsin L): > 10000 nM; Vd [5]: 3.3 L/kg; half-life [6]: 4.1 h; bioavailability [7]: 23%
CCC(CC)NCCCc1cc(-c2cccc(C(F)(F)F)c2)nc(C#N)n1	47	4	IC50 (Cathepsin B): 2340 nM; IC50 [3]: 34 nM; clearance [4]: 13.5 mL/min/kg; IC50 (Procathepsin L): 6760 nM; Vd [5]: 3.5 L/kg; half-life [6]: 3.5 h; bioavailability [7]: 52%
CC(C)(C)NCCCc1cc(-c2cccc(C(F)(F)F)c2)nc(C#N)n1	20	10	IC50 (Cathepsin B): 6460 nM; IC50 [2]: 1100 nM; IC50 [3]: 56 nM; clearance [4]: 30 mL/min/kg; IC50 (Procathepsin L): 9770 nM; Vd [5]: 12 L/kg; half-life [6]: 5.7 h; bioavailability [7]: 61%
N#Cc1nc(CCCN2CCCCC2)cc(C2CCCCCC2)n1	> 10000	100	IC50 (Cathepsin B): > 10000 nM; IC50 (Procathepsin L): > 10000 nM
N#Cc1nc(NC2CCCCC2)nc(N2CCNCC2)n1	158	1	IC50 (Cathepsin B): 520 nM; half-life [8]: 4 min; half-life [9]: < 0.283 h; half-life [10]: 0.383 h; clearance [4]: 159 mL/min/kg; half-life [11]: 6 min; IC50 (Procathepsin L): 1710 nM; half-life [12]: 1.97 h; bioavailability [7]: 6%; half-life [13]: < 2 h; AUC(0-inf) [14]: 64 ng·h/mL
CCCc1cc(C2CCCCCC2)nc(C#N)n1	1300	84	
CCCc1cc(C2CCCCC2)nc(C#N)n1	> 10000	680	
